Series [1] can be described thus: Effect of pyridoxal 5′-phosphate on fluorescence of the metabolic products of the CYP assays. As to the method:
Prior to performing the CYP inhibition assays, the effect of pyridoxal 5′-phosphate on the fluorescence of the metabolic products measured in the assays was evaluated. The fluorescence of metabolite (one concentration, in duplicate) was measured in the absence (0 μM) and presence of 0.457 to 1000 μM pyridoxal 5′-phosphate. The concentrations and metabolic products measured were: 1 μM 3-cyano-7-hydroxycoumarin (CHC), 2.5 μM 7-hydroxycoumarin (7-HC), 2.5 μM 7-hydroxy-4-trifluoromethylcoumarin (HFC), 0.1 μM fluorescein, 10 μM 3-[2-(N,N-diethylamino)ethyl]-7-hydroxy-4-methylcoumarin (AHMC) and 10 μM quinolinol. The concentration of metabolite used was based on the expected maximum concentration of metabolite formed in the CYP inhibition assay (i.e. the concentration of metabolite measured following incubation substrate with the CYP subtype in the absence of an inhibitor). CHC is the fluorescent metabolite measured in the CYP1A2 and CYP2C19 assays. 7-HC is the fluorescent metabolite measured in the CYP2A6 assay, HFC is the fluorescent metabolite measured in the CYP2B6, CYP2C9, CYP2E1 and CYP3A4 (BFC as substrate) assays and fluorescein is the metabolite measured in the CYP2C8 assay. AHMC is the metabolite measured in the CYP2D6 assay and quinolinol is measured in the CYP3A4 (BQ as substrate) assay. […]

A further series addresses CYP2D6 (Homo sapiens, UniProt P10635). Briefly: CYP2D6 inhibition assay (substrate AMMC). The conditions noted are these: 0.0169 to […] tested, na = concentration-dependent inhibition not observed. The source says:
(§1) The CYP inhibition assays used microsomes (Supersomes®, Gentest Corp., Woburn, Mass.) prepared from insect cells, each expressing an individual CYP subtype (CYP1A2, CYP2A6, CYP2B6, CYP2C8, CYP2C9, CYP2C19, CYP2D6, CYP2E1 or CYP3A4) expressed from the corresponding human CYP cDNA using a baculovirus expression vector. The microsomes also incorporated supplemental cDNA-expressed human reductase and/or cytochrome b5, as these enzymes stimulate the activity of the CYPs, allowing for a reduction in the amount of enzyme required per reaction (Gentest Corp.). The assays monitored, via fluorescence detection, the formation of a fluorescent metabolite following incubation of the microsomes with a specific CYP substrate. […]
(§2) Eight inhibitor and test compound concentrations were tested using 3-fold serial dilutions. […] The amount of metabolic product formed was quantified by fluorescence detection in a fluorescence plate reader utilizing excitation and emission filters that had been optimized for the detection of each metabolite.
(§3) Data Analysis—The mean of the duplicate fluorescent signals in the presence and absence (vehicle control) of each compound was calculated and corrected for the background noise. […]

Another series has as its target CYP3A4 (Homo sapiens, UniProt P08684). Briefly: CYP3A4 inhibition assay (substrates BFC and BQ).
Source text: as §1, §2, §3

Read-outs that look alike come from different tables or passages of the source.

A word on the IC50: it is the concentration that inhibits the measured activity by half.

Sequence of CYP3A4 (P08684 whole entry): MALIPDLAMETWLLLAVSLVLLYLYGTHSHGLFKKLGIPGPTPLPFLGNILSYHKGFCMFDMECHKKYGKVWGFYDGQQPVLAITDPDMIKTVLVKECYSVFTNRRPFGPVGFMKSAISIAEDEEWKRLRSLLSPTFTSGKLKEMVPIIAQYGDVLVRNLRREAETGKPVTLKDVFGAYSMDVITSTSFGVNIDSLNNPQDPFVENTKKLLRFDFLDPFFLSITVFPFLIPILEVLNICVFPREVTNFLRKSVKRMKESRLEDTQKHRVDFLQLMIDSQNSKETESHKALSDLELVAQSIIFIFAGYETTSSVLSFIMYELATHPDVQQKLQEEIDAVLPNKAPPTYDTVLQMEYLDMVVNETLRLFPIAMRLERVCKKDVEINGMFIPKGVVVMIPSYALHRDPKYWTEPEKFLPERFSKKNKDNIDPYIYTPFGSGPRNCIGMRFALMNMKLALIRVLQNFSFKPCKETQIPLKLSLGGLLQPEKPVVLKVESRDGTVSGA
Sequence of CYP2D6 (P10635 whole entry): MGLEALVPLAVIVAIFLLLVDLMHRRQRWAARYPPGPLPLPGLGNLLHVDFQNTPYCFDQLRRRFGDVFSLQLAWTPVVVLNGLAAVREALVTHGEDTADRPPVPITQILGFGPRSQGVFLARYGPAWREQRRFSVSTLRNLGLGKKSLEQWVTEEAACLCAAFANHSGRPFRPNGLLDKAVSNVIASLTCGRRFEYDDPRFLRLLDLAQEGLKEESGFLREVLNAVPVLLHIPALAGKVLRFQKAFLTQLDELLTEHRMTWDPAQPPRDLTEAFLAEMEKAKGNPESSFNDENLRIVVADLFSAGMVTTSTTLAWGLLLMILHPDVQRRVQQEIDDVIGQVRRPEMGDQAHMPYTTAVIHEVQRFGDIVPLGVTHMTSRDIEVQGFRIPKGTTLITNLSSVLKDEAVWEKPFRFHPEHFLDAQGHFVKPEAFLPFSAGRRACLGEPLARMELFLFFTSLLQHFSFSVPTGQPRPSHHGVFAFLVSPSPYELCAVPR

Regarding `Cc1ncc(COP(=O)(O)O)c(C=O)c1O` [P5P, pyridoxal-5-phosphate], in series [1] (metabolites CHC, 7-HC, 7-HFC, AHMC and quinolinol, 0.457 to 1000 μM tested), the “concentration at which fluorescence of metabolites was significantly quenched” value was > 37 µM. Besides, the “effect on the fluorescence of fluorescein” value in series [1] (up to 1000 μM, fluorescein is the CYP2C8 assay product) was “did not affect”. In addition, the “Pyridoxal 5′-phosphate IC50” value on CYP2D6 is given as “did not inhibit”. Further, the IC50 was > 37 µM on CYP3A4 (read-out: Pyridoxal 5′-phosphate IC50, CYP3A4, substrate BQ, 0.0169 to […] tested) and ≥ 37 µM at CYP3A4 (read-out: Pyridoxal 5′-phosphate IC50 for CYP3A4, CYP3A4, substrate not given).

For the origin of these results see patent US20070280915A1, “Combination Therapies Employing A Composition Comprising A Hmg Coa Reductase Inhibitor And A Vitamin B6 Related Compound” (priority 2003, published 2007).
